Measurements reported in PMC11938010, “Positive Charge in an Antimalarial Compound Unlocks Broad-Spectrum Antibacterial Activity” (JACS Au, 2025).
Values after ≈ are worked out from the molar mass of the structure shown. Like-named read-outs stand apart in the source and are kept apart here.

Key:
[1] = system: Plasmodium falciparum NF54; assay: P. falciparum in vitro drug sensitivity assay on asexual blood stage parasites ([3H]-hypoxanthine incorporation); assay type: cell-based; conditions: read-out: PfNF54 IC50
Escherichia coli ∆tolC = assay: microbe, parasite or virus in culture; assay type: cell-based; conditions: for MIC / inhibition at 50 µM: Escherichia coli; for inhibition at 50 µM: read-out: Ec∆tolC inh. at 50 µM (%)
E. coli K12 = assay: In vitro antibacterial activity (growth inhibition, OD600), E. coli wild-type; assay type: cell-based; conditions: Escherichia coli; for inhibition at 50 µM: K12, 50 μM compound, Table 1 and main text, read-out: EcK12 inh. at 50 μM
Acinetobacter baumannii = assay: In vitro antibacterial activity (growth inhibition, OD600), A. baumannii; assay type: cell-based; conditions: for MIC: read-out: Ab MIC95
[2] = system: Pseudomonas aeruginosa PA14; assay: In vitro antibacterial activity (growth inhibition, OD600), P. aeruginosa; assay type: cell-based; conditions: PA14, 50 μM compound, Table 1 and main text, read-out: PA14 inh. at 50 μM
[3] = system: Streptococcus pneumoniae (DSM20566); assay: In vitro antibacterial activity (MIC), S. pneumoniae; assay type: cell-based; conditions: read-out: Sp MIC95
[4] = system: Staphylococcus aureus ssp. Aureus; assay: In vitro antibacterial activity (MIC), S. aureus; assay type: cell-based; conditions: read-out: Sa MIC95
Solubility in 7H9 medium = assay type: physicochemical; conditions: M. tuberculosis growth medium (7H9)
in vitro = conditions: human, HepG2 CC50, 48 h, MTT
[5] = system: Mycobacterium tuberculosis (Mtb) strain H37Rv; assay: microbe, parasite or virus in culture; assay type: cell-based; conditions: 168 h, 7 days, footnote b: not active at maximum solubility, read-out: MtbH37Rv MIC90
[6] = In vitro cytotoxicity by XTT assay; assay type: cell-based; conditions: human, human monocyte-derived macrophages (hMdM)
[7] = Plasmodium falciparum, NF54, Table 1 and main text
[8] = 50 μM compound, Table 1 and main text, read-out: Ab inh. at 50 μM
[9] = Streptococcus pneumoniae, DSM20566, Table 1 and main text
[10] = Streptococcus pneumoniae, DSM20566, Table S2, with standard deviation
[11] = Staphylococcus aureus, Table 1 and main text
[12] = Staphylococcus aureus, Table S2, with standard deviation
[13] = 50 µM, Table S1, with standard deviation, read-out: Ab inh. at 50 µM (%)
[14] = Table S1, printed inside the inhibition column, with standard deviation, unit from Table 1 footnote
[15] = printed inside the Ab inhibition column, Table 1 and main text

| SMILES | IC50 [1, 7] | MIC (Escherichia coli ∆tolC; read-out: EcΔtolC MIC95) | inhibition at 50 µM (Escherichia coli ∆tolC) | inhibition at 50 µM (E. coli K12) | inhibition at 50 µM (Acinetobacter baumannii; [8]) | inhibition at 50 µM [2] | MIC [3, 9] | MIC [3, 10] | MIC [4, 11] | MIC [4, 12] | 7h9 media Sol. (Solubility in 7H9 medium) | CC50 (in vitro) | MIC90 [5] | MIC (Escherichia coli ∆tolC; read-out: Ec∆tolC MIC95 (µM)) | other results |
| --- | --- | --- | --- | --- | --- | --- | --- | --- | --- | --- | --- | --- | --- | --- | --- |
| O=C(Nc1cccc(C(F)(F)F)c1)c1cc(-c2cc(Cl)ccc2O)[nH]n1 [Compound 1a] | 210 nM | > 50 µM | < 10% | < 10% | < 10% | < 10% | > 50 µM | > 50 µM | > 50 µM | > 50 µM | < 8 µM | > 50 µM |  |  | EcΔtolC MIC95 (Escherichia coli ∆tolC; Table 1 and main text): >50 µM; MIC ([3]; Table 1 and main text): >50 µM; MIC ([4]; Table 1 and main text): >50 µM |
| O=C(Nc1cccc(F)c1)c1cc(-c2cc(Cl)ccc2O)[nH]n1 [Compound 1b] | 700 nM | > 50 µM |  |  |  |  | > 50 µM | > 50 µM | > 50 µM | > 50 µM | < 8 µM |  |  |  |  |
| O=C(Nc1cccc([N+](=O)[O-])c1)c1cc(-c2cc(Cl)ccc2O)[nH]n1 [Compound 1c] | 510 nM | > 50 µM |  |  |  |  | > 50 µM | > 50 µM | > 50 µM | > 50 µM | 32 µM |  | > 32 µM |  |  |
| O=C(Nc1cccc(CN2CCOCC2)c1)c1cc(-c2cc(Cl)ccc2O)[nH]n1 [Compound 2] | 1100 nM | > 50 µM | 24 ± 12% |  |  |  | > 50 µM | > 50 µM | > 50 µM | > 50 µM | 16 µM | ~50 µM | > 16 µM |  |  |
| O=C(Nc1cccc(CN2CCNCC2)c1)c1cc(-c2cc(Cl)ccc2O)[nH]n1 [Compound 3A] | 620 nM | 45 µM (≈ 18.5 µg/mL) |  | 28% | 21% | 50% | 40 µM (≈ 16.5 µg/mL) | 40 ± 7 µM (≈ 16.5 µg/mL) | > 50 µM | > 50 µM | 64 µM | 12 µM | > 64 µM | 45 ± 1 µM (≈ 18.5 µg/mL) |  |
| O=C(Nc1cccc(N2CCNCC2)c1)c1cc(-c2cc(Cl)ccc2O)[nH]n1 [Compound 5A] | 130 nM | 21 µM (≈ 8.36 µg/mL) |  | 83% | 34% | 60% | 26 µM (≈ 10.3 µg/mL) | 26 ± 1 µM (≈ 10.3 µg/mL) | 37 µM (≈ 14.7 µg/mL) | 37 ± 10 µM (≈ 14.7 µg/mL) | 64 µM | 9 µM | 64 µM (≈ 25.5 µg/mL) | 21 ± 2 µM (≈ 8.36 µg/mL) | inhibition at 50 µM (Acinetobacter baumannii; [13]): 34.3 ± 0.4% |
| O=C(Nc1ccc(N2CCNCC2)cc1)c1cc(-c2cc(Cl)ccc2O)[nH]n1 [Compound 6A] | 140 nM | 22.5 µM (≈ 8.95 µg/mL) |  | 49% | 37% | 63% | 45 µM (≈ 17.9 µg/mL) | 45 µM (≈ 17.9 µg/mL) | > 50 µM | > 50 µM | 16 µM | 11.8 µM | > 16 µM | 22.5 µM (≈ 8.95 µg/mL) |  |
| NCc1cccc(NC(=O)c2cc(-c3cc(Cl)ccc3O)[nH]n2)c1 [Compound 7A] | 300 nM | 47 µM (≈ 16.1 µg/mL) |  | 27% | 15% | 44% | 43 µM (≈ 14.7 µg/mL) | 43 ± 11 µM (≈ 14.7 µg/mL) | > 50 µM | > 50 µM | 64 µM | 28.4 µM | > 64 µM | 47 ± 1 µM (≈ 16.1 µg/mL) |  |
| NCc1ccc(NC(=O)c2cc(-c3cc(Cl)ccc3O)[nH]n2)cc1 [Compound 8A] | > 2000 nM | > 50 µM | 44 ± 16% |  |  |  | > 50 µM | > 50 µM | > 50 µM | > 50 µM | 16 µM | 30 µM | > 16 µM |  | IC50 ([1]; Table 1 and main text): 1800 nM |
| CC(C)(C)OC(=O)NCc1ccc(NC(=O)c2cc(-c3cc(Cl)ccc3O)[nH]n2)cc1 [Compound 8B] | 1700 nM | > 50 µM | < 10% |  |  |  | > 50 µM | > 50 µM | > 50 µM | > 50 µM | < 8 µM | > 50 µM |  |  |  |
| CC(C)(C)OC(=O)N1CCN=C1NCc1ccc(NC(=O)c2cc(-c3cc(Cl)ccc3O)[nH]n2)cc1C(F)(F)F [Compound 10D, tert-Butyl 2-((4-(5-(5-chloro-2-hydroxyphenyl)-1H-pyrazole-3-carboxamido)-2-(trifluoromethyl)benzyl)amino)-4,5-dihydro-1H-imidazole-1-carboxylate] | 140 nM | 18 µM (≈ 10.4 µg/mL) |  | 17% | < 10% | < 10% | > 50 µM | > 50 µM | 11.6 µM (≈ 6.72 µg/mL) | 11.6 ± 0.2 µM (≈ 6.72 µg/mL) |  | 11 µM | 16 µM (≈ 9.26 µg/mL) | 18 ± 6 µM (≈ 10.4 µg/mL) |  |
| N=C(N)NCc1ccc(NC(=O)c2cc(-c3cc(Cl)ccc3O)[nH]n2)cc1C(F)(F)F [Compound 10G] | 250 nM | 3.5 µM (≈ 1.58 µg/mL) |  | 86% | 49% | 55% | 16 µM (≈ 7.25 µg/mL) | 16 ± 5 µM (≈ 7.25 µg/mL) | 5 µM (≈ 2.26 µg/mL) | 5 ± 1 µM (≈ 2.26 µg/mL) |  | > 50 µM | 8 µM (≈ 3.62 µg/mL) | 3.5 ± 0.8 µM (≈ 1.58 µg/mL) | CC90 at 24 h [6]: > 32 µM |
| O=C(Nc1cc(N2CCNCC2)cc(C(F)(F)F)c1)c1cc(-c2cc(Cl)ccc2O)[nH]n1 [Compound 11A] | ≤ 60 nM | 7 µM (≈ 3.26 µg/mL) |  | 72% |  | < 10% | 5 µM (≈ 2.33 µg/mL) | 5 ± 1 µM (≈ 2.33 µg/mL) | 6 µM (≈ 2.8 µg/mL) | 6 ± 2 µM (≈ 2.8 µg/mL) |  | 9 µM | 32 µM (≈ 14.9 µg/mL) | 7 ± 2 µM (≈ 3.26 µg/mL) | IC50 ([1]; Table 1 and main text): 50 nM; MIC (Acinetobacter baumannii; [14]): 22 ± 3 µM (≈ 10.2 µg/mL); MIC (Acinetobacter baumannii; [15]): 22 µM (≈ 10.2 µg/mL) |
| CC(C)(C)OC(=O)N1CCN(c2cc(NC(=O)c3cc(-c4cc(Cl)ccc4O)[nH]n3)cc(C(F)(F)F)c2)CC1 [Compound 11B] | 130 nM | > 50 µM | 18 ± 4% |  |  |  | > 50 µM | > 50 µM | > 50 µM | > 50 µM | < 8 µM | 4 µM |  |  | inhibition at 50 µM (Acinetobacter baumannii; [13]): < 10% |
| O=C(Nc1cc(N2CCN(C3=NCCN3)CC2)cc(C(F)(F)F)c1)c1cc(-c2cc(Cl)ccc2O)[nH]n1 [Compound 11C, 5-(5-Chloro-2-hydroxyphenyl)-N-(3-(4-(4,5-dihydro-1H-imidazol-2-yl)piperazin-1-yl)-5-(trifluoromethyl)phenyl)-1H-pyrazole-3-carboxamide] | 590 nM | 7 µM (≈ 3.74 µg/mL) |  | 63% | 53% | < 10% | 7 µM (≈ 3.74 µg/mL) | 7 ± 2 µM (≈ 3.74 µg/mL) | 8 µM (≈ 4.27 µg/mL) | 8 ± 2 µM (≈ 4.27 µg/mL) |  | > 50 µM | 8 µM (≈ 4.27 µg/mL) | 7 ± 2 µM (≈ 3.74 µg/mL) |  |
| N=C(N)N1CCN(c2cc(NC(=O)c3cc(-c4cc(Cl)ccc4O)[nH]n3)cc(C(F)(F)F)c2)CC1 [Compound 11G, N-(3-(4-Carbamimidoylpiperazin-1-yl)-5-(trifluoromethyl)phenyl)-5-(5-chloro-2-hydroxyphenyl)-1H-pyrazole-3-carboxamide] | 500 nM | 4 µM (≈ 2.03 µg/mL) |  |  |  | 25% | 28 µM (≈ 14.2 µg/mL) | 28 ± 15 µM (≈ 14.2 µg/mL) | 3.2 µM (≈ 1.63 µg/mL) | 3.2 ± 0.1 µM (≈ 1.63 µg/mL) |  | > 25 µM | 8 µM (≈ 4.06 µg/mL) | 4 ± 1 µM (≈ 2.03 µg/mL) | MIC (E. coli K12; K12, Table S1, printed inside the inhibition column, with standard deviation, unit from Table 1 footnote, read-out: EcK12 MIC95): 48 ± 5 µM (≈ 24.4 µg/mL); MIC (Acinetobacter baumannii; [14]): 17 ± 5 µM (≈ 8.63 µg/mL); MIC (Acinetobacter baumannii; [15]): 17 µM (≈ 8.63 µg/mL); CC90 at 24 h [6]: > 32 µM |
| O=C(Nc1ccc(N2CCNCC2)c(C(F)(F)F)c1)c1cc(-c2cc(Cl)ccc2O)[nH]n1 [Compound 12A, 5-(5-Chloro-2-hydroxyphenyl)-N-(4-(piperazin-1-yl)-3-(trifluoromethyl)phenyl)-1H-pyrazole-3-carboxamide] | ≤ 60 nM | 18.9 µM (≈ 8.8 µg/mL) |  | 12% | 29% | < 10% | 8 µM (≈ 3.73 µg/mL) | 8 ± 2 µM (≈ 3.73 µg/mL) | 14 µM (≈ 6.52 µg/mL) | 14 ± 2 µM (≈ 6.52 µg/mL) |  | 6 µM | 16 µM (≈ 7.45 µg/mL) | 18.9 ± 0.5 µM (≈ 8.8 µg/mL) | IC50 ([1]; Table 1 and main text): 60 nM |
| CC(C)(C)OC(=O)N1CCN(c2ccc(NC(=O)c3cc(-c4cc(Cl)ccc4O)[nH]n3)cc2C(F)(F)F)CC1 [Compound 12B, tert-Butyl 4-(4-(5-(5-chloro-2-hydroxyphenyl)-1H-pyrazole-3-carboxamido)-2-(trifluoromethyl)phenyl)piperazine-1-carboxylate] | 560 nM | > 50 µM | < 10% |  |  |  | > 50 µM | > 50 µM | > 50 µM | > 50 µM | < 8 µM | > 50 µM |  |  | inhibition at 50 µM (Acinetobacter baumannii; [13]): < 10% |
